Results on one compound are retold here after patent publication US10286000B2, “Retinoid X receptor-gamma agonists and retinoid X receptor-alpha antagonists for treatment of cancer” (St. Jude Children's Research Hospital, Inc., priority 2013, dated 2019).

For data set [1], the system named is NKG2DL mRNA in colon cancer cell lines. The data set can be described thus: qRT-PCR of NKG2DL mRNA. It counts as cell-based, human. Conditions: relative to DMSO. The method, then:
For qRT-PCR, total RNA was extracted from untreated or drug-treated tumor cells by using the RNA Clean & Concentrator (Zymo Research). All cDNA was generated by using the SuperScript VILO cDNA Synthesis kit (Life Technologies) and diluted 10-fold for analysis using the 7900HT Fast Real-time PCR System (Applied Biosystems). The data were calculated as the CT of target genes normalized to the CT of GAPDH of each sample. […] Differentially expressed transcripts were analyzed by ANOVA on Spotfire program.

The test system of the next data set is normal human lymphocytes. The data set can be described thus: normal human lymphocytes: viability and NKG2DL expression. It counts as cell-based.
The subject of the next data set is MMP-1. The data set can be described thus: MMP-1 activity in culture supernatant. Type of data set: cell-based, human. Conditions: culture supernatant from HT29 and CAL27 cells.
The test system of data set [2] is ULBP2 in MR-knockdown 293T cells. The experiment in a line: ULBP2 surface expression in MR-knockdown 293T cells. It counts as cell-based, human. The method, then:
(A) MR mRNA expression was determined by qRT-PCR in various cell lines (n=3). (B) MR protein expression was determined by Western blot analysis. Data shown are representative of two independent experiments. (C) MR-knockdown 293T cells were generated by lentiviral transduction with an shRNA vector (pLKO.1) targeting MR. The relative mRNA expression of MR was analyzed by qRT-PCR (n=3). […] Data shown are representative of two independent experiments. * P<0.0001.

Data set [3] has as its system HCT116 cells, hepatic metastasis. The data set can be described thus: hepatic metastasis model (intrasplenic HCT116). Type of data set: in vivo, NSG mice. Conditions: i.p. every other day. The method, then: (B) HCT116 cells were transfected with control KD or RXR-gamma-KD1 siRNA on day 0. […] The mRNA expression of TIMP2 and TIMP3 was analyzed by qRT-PCR on day 5. Data are shown as relative mRNA fold change of SPIR-treated RXR-gamma-KD1 cells to control KD cells (n=3). (C) HCT116 cells were transfected with control KD or RXR-gamma-KD1 siRNA on day 0. […] Data are calculated as the percentage change in distance of migration relative to that of DMSO-treated cells (n=3). (D) HCT116 cells were transfected with control KD, RXR-gamma-KD1, TIMP2-KD or TIMP3-KD siRNA on day 0. […] The number of cells that invaded the ECM was determined after 36 h. Data are expressed as percentage change in tumor invasion relative to that of DMSO-treated cells (n=3). (E) HCT116 cells were transfected with control-KD, TIMP2-KD or TIMP3-KD siRNA on day 0. […] Hepatic metastasis was analyzed by performing bioluminescence imaging on day 10.* P<0.05, ** P<0.005, *** P<0.0001.
Luciferase-expressing HCT116 and HT29 cells were generated by lentiviral transduction of the cells with a CMV promoter-driven luciferase expression construct engineered from the pLL3.7 vector. […] Bioluminescence imaging was performed in a Xenogen imaging system to monitor tumor growth and the data were analyzed using Living Image software (Caliper LifeSciences). […]

The subject of data set [4] is HCT116, HT29, and CAL27 cells. The data set can be described thus: in vitro cell invasion assay (ECM-coated Transwell). It counts as cell-based, human. The following applies: HCT116, HT29, CAL27. The method, then: The number of cells that invaded the ECM was determined after 24 h. Data are expressed as percentage change in tumor invasion relative to that of DMSO-treated cells (n=3). (D) Wound healing by DMSO- and SPIR-treated HCT116, HT29, and CAL27 cells was compared. Data are calculated as the percentage change in distance of migration relative to that of DMSO-treated cells (n=3). […] Tumor xenografts and lung metastases were detected by bioluminescence imaging on day 25. Data are shown as the average total flux (photons/second)±standard deviation (n=8). (F) The lung metastases (arrows) were confirmed by examining lung tissue sections. * P≤0.05, ** P<0.01, *** P<0.005, **** P<0.0001.
The invasiveness of the tumor cells was determined by using the CytoSelect 96-well Cell Invasion Assay with Basement Membrane (Cell Biolabs) according to the manufacturer instructions.

The test system of data set [5] is Chk1 (Ser-317 phosphorylation). The data set can be described thus: Phospho-Chk1 ELISA. It counts as cell-based, human. The following applies: HCT116, 0 h to 24 h. The method, then: Ser-317 phosphorylation of Chk1 was determined by using the PathScan phosphor-Chk1 (Ser317) Sandwich ELISA kit (Cell Signaling). Data were normalized to the total Chk1 levels obtained from an ELISA with anti-Chk1 (total) used as the detection antibody.

As to `CC(=O)S[C@@H]1CC2=CC(=O)CC[C@]2(C)[C@H]2CC[C@@]3(C)[C@@H](CC[C@@]34CCC(=O)O4)[C@H]12` [SPIR, spironolactone], the “NKG2DL mRNA levels” value in data set [1] was “increase in mRNA levels”. In the data set on normal human lymphocytes, the “viability or NKG2DL expression of normal human lymphocytes” value was “no detrimental effect”. Also, in the data set with MMP-1, the MMP-1 activity result is “decrease of MMP-1 activity”. Further, in data set [2], the “upregulation of ULBP2 upon SPIR treatment with shRNA knockdown of MR” value was “did not affect the upregulation of ULBP2”. Moreover, the hepatic tumor metastasis entry in data set [3] is listed as “significantly suppresses tumor metastasis”. For the same compound, the “invasion through ECM-coated membranes” value in data set [4] is listed as “significantly suppressed invasion”. In addition, in data set [5], the “Ser-317 phosphorylation of Chk1 (P-Chk1)” value was “time-dependent increase”.
